In brackets after ≈: the same amount, converted by molar mass.
Assays:
[1] = tested on: F56D6.2; assay: qRT-PCR of immune response gene expression; assay type: in vivo, Caenorhabditis elegans; conditions: 20 μg/mL versus DMSO
From the text: (§1) Caenorhabditis elegans strains were maintained on Escherichia coli OP50 as described in Brenner, Genetics, 1974, 77:71-94. Wildtype N2 nematodes carrying integrated transgenes acIs219 (AU78), acIs101(AY101), agIs17(AU133), or agIs26 (AU185) (see (1) Shivers, et al., PLoS. Genet. 2010, 6: e1000892, (2) Bolz et al., J. Biol. Chem. 2010, 285:10832-40, (3) Estes et al., Proc. Natl. Acad. Sci., 2010, 107:2153-8, and (4) Irazoqui et al., Proc. Natl. Acad. Sci., 2008, 105:17469-74) were used to assay the immunomodulatory activity of candidate compounds. For qRT-PCR experiments, RNA was extracted from synchronized young adult nematodes exposed to a candidate compound or DMSO (as a control) using TRI Reagent and reverse transcribed using the Retroscript kit (Ambion). This cDNA was then subjected to qRT-PCR analysis using SYBR green detection on a CFX1000 machine (Bio-Rad, http://www.bio-rad.com). Primers for qRT-PCR were obtained from published sequences (see Irazoqui et al., Proc. Natl. Acad. Sci., 2008, 105:17469-74 and Troemel et al., PLoS Genet. 2006, 2:e183). […] Fold change was calculated using the Pfaffl method (see Pfaffl et al., Nucleic Acids Res., 2001, 29:e45).
(§2) By using the assay described above, the inventors identified five compounds (i.e., Compounds 11, 18, 20, 25, and 26) that robustly and reproducibly activated the immune GFP reporters (see FIG. 5 and Table 3) or activated selected immune response genes as determined by quantitative RT-PCR analysis (see Table 4). For the latter experiments, RNA was isolated from wild-type C. elegans N2 or pmk-1 mutant animals exposed to the candidate immunomodulatory compounds at 20 μg/mL and from animals exposed to DMSO. The inventors tested several immune response genes in compound-exposed animals that are known to be regulated by PMK-1, the p38 Mitogen Acitvated Protein kinase homolog, an evolutionary-conserved, central regulator of nematode immunity. The inventors also used qRT-PCR to measure the activation of several immune response genes that are known to be activated independently of PMK-1. […] Thus, without wishing to be bound by theory, it is believed that a subset of the compounds identified in the screen for novel anti-infective compounds directly stimulate the immune response of the nematode and that these compounds act both by directly stimulating the PMK-1 pathway and by unidentified parallel immune response pathways.

[2] = tested on: C49G7.5; assay: qRT-PCR of immune response gene expression; assay type: in vivo, Caenorhabditis elegans; conditions: 20 μg/mL versus DMSO
From the text: as §1, §2

[3] = tested on: F53E10.4; assay: qRT-PCR of immune response gene expression; assay type: in vivo, Caenorhabditis elegans; conditions: 20 μg/mL versus DMSO
From the text: as §1, §2

[4] = tested on: T24B8.5; assay: qRT-PCR of immune response gene expression; assay type: in vivo, Caenorhabditis elegans; conditions: 20 μg/mL versus DMSO
From the text: as §1, §2

[5] = tested on: irg-1; assay: qRT-PCR of immune response gene expression; assay type: in vivo, Caenorhabditis elegans; conditions: 20 μg/mL versus DMSO
From the text: as §1, §2

[6] = tested on: C17H12.8; assay: qRT-PCR of immune response gene expression; assay type: in vivo, Caenorhabditis elegans; conditions: 20 μg/mL versus DMSO
From the text: as §1, §2

[7] = tested on: F35E12.5; assay: qRT-PCR of immune response gene expression; assay type: in vivo, Caenorhabditis elegans; conditions: 20 μg/mL versus DMSO
From the text: as §1, §2

[8] = tested on: immune response genes; assay: qRT-PCR of immune response genes, PMK-1 dependence (overall); assay type: in vivo, Caenorhabditis elegans; conditions: 20 μg/mL, N2 or pmk-1 mutant animals
From the text: as §1
By using the assay described above, the inventors identified five compounds (i.e., Compounds 11, 18, 20, 25, and 26) that robustly and reproducibly activated the immune GFP reporters (see FIG. 5 and Table 3) or activated selected immune response genes as determined by quantitative RT-PCR analysis (see Table 4). For the latter experiments, RNA was isolated from wild-type C. elegans N2 or pmk-1 mutant animals exposed to the candidate immunomodulatory compounds at 20 μg/mL and from animals exposed to DMSO. The inventors tested several immune response genes in compound-exposed animals that are known to be regulated by PMK-1, the p38 Mitogen Acitvated Protein kinase homolog, an evolutionary-conserved, central regulator of nematode immunity. The inventors also used qRT-PCR to measure the activation of several immune response genes that are known to be activated independently of PMK-1. […]

[9] = tested on: T24B8.5::GFP; assay: Immune GFP reporter induction, transgene acIs219; assay type: in vivo, Caenorhabditis elegans; conditions: compound-exposed versus DMSO-exposed animals, visual
From the text: as §1
Without wishing to be bound by theory, it was hypothesized that a subset of these compounds cured nematode infection by directly activating the innate immune response of the animal. To test this hypothesis, a multi-faceted approach was used. First, the inventors studied four C. elegans strains in which the promoter of the nematode immune response genes T24B8.5, F35E12.5, irg-1 and clec-60 were individually fused to GFP, generating transgenes acIs219 (AU78), acIs101(AY101), agIs17(AU133), or agIs26 (AU185), respectively, thereby allowing a visual readout of gene activity in each strain. Using these reporter strains, the ability of 33 compounds previously shown to have anti-Enterococcal killing activity in the C. elegans infection assay (24 of which have been described above) were tested for their ability to modulate the nematode immune response.

[10] = tested on: F35E12.5::GFP; assay: Immune GFP reporter induction, transgene acIs101; assay type: in vivo, Caenorhabditis elegans; conditions: compound-exposed versus DMSO-exposed animals, visual
From the text: Caenorhabditis elegans strains were maintained on Escherichia coli OP50 as described in Brenner, Genetics, 1974, 77:71-94. Wildtype N2 nematodes carrying integrated transgenes acIs219 (AU78), acIs101(AY101), agIs17(AU133), or agIs26 (AU185) (see (1) Shivers, et al., PLoS. Genet. 2010, 6: e1000892, (2) Bolz et al., J. Biol. Chem. 2010, 285:10832-40, (3) Estes et al., Proc. Natl. Acad. Sci., 2010, 107:2153-8, and (4) Irazoqui et al., Proc. Natl. Acad. Sci., 2008, 105:17469-74) were used to assay the immunomodulatory activity of candidate compounds. […] Fold change was calculated using the Pfaffl method (see Pfaffl et al., Nucleic Acids Res., 2001, 29:e45).
Without wishing to be bound by theory, it was hypothesized that a subset of these compounds cured nematode infection by directly activating the innate immune response of the animal. […] First, the inventors studied four C. elegans strains in which the promoter of the nematode immune response genes T24B8.5, F35E12.5, irg-1 and clec-60 were individually fused to GFP, generating transgenes acIs219 (AU78), acIs101(AY101), agIs17(AU133), or agIs26 (AU185), respectively, thereby allowing a visual readout of gene activity in each strain. […]

[11] = tested on: E. faecalis MMH594; assay: MIC assay, E. faecalis in vitro; assay type: cell-based; conditions: Enterococcus faecalis; E. faecalis MMH594 in 20% BHI, 80% M9, 37° C., 15 hours, scored by eye
Experimental: A culture of E. faecalis MMH594 was grown overnight in BHI broth to stationary phase at 37° C. with aeration. The culture was diluted to an approximate density of […] in worm infection media (20% BHI, 80% M9 buffer). 12.5 μl of the bacterial culture dilution was inoculated into 384-well plates containing 12.5 μl of 2-fold serial dilutions of a test compound. […] Plates were incubated at 37° C. for 15 hours and scored by eye for bacterial growth.

SMILES	F56D6.2 expression, average fold-change ([1]; genotype N2) [fold-change]	F56D6.2 expression, average fold-change ([1]; genotype pmk-1(km25)) [fold-change]	C49G7.5 expression, average fold-change ([2]; genotype N2) [fold-change]	C49G7.5 expression, average fold-change ([2]; genotype pmk-1(km25)) [fold-change]	F53E10.4 expression, average fold-change ([3]; genotype N2) [fold-change]	F53E10.4 expression, average fold-change ([3]; genotype pmk-1(km25)) [fold-change]	T24B8.5 expression, average fold-change ([4]; genotype N2) [fold-change]	T24B8.5 expression, average fold-change ([4]; genotype pmk-1(km25)) [fold-change]	irg-1 expression, average fold-change ([5]; genotype N2) [fold-change]	irg-1 expression, average fold-change ([5]; genotype pmk-1(km25)) [fold-change]	C17H12.8 expression, average fold-change ([6]; genotype N2) [fold-change]	C17H12.8 expression, average fold-change ([6]; genotype pmk-1(km25)) [fold-change]	F35E12.5 expression, average fold-change ([7]; genotype N2) [fold-change]	F35E12.5 expression, average fold-change ([7]; genotype pmk-1(km25)) [fold-change]	PMK-1 dependence of immune response gene activation [8]	immune reporter induction T24B8.5::GFP [9]	immune reporter induction F35E12.5::GFP [10]	MIC [11] [µg/mL]
NNc1ccc2c(Cl)cc(Cl)c(O)c2n1 [Compound 11]	15.1	1.4	0.9	2.5	1.0	1.7	57.0	3.2	1.7	4.7	18.0	1.1	20.23	6.7	preferentially activated PMK-1-dependent immune response genes	+	+	6.25 (≈ 25.6 µM)
Cc1ccc(Nc2nc(N)c3ccccc3n2)cc1Cl [Compound 26]	13.1	0.6	1.8	6.3	0.3	0.8	1.6	1.8	1.1	4.0	1.1	0.4	156.1	149.0	activated at least one immune response gene in the nematode in a manner independent of PMK-1	+	+	–
